Data: patent US20240409585A1, “MACROCYCLIC IMMUNOMODULATORS” (priority 2021, published 2024)
Bridge positions count the residues as written; N and C are the ends. Square brackets hold non-standard residues; d marks the D form. Peptide text beside a SMILES is read from it. * marks the point of attachment. ξ: configuration not given here. Tyr(3-NO2) = N[C@@H](Cc1ccc(O)c([N+](=O)[O-])c1)C(=O)O; Ala(1H-tetrazol-5-yl) = N[C@@H](Cc1nnn[nH]1)C(=O)O; Phe(4-COOH) = N[C@@H](Cc1ccc(C(=O)O)cc1)C(=O)O; Bip = N[C@@H](Cc1ccc(-c2ccccc2)cc1)C(=O)O; Phe(2-Br) = N[C@@H](Cc1ccccc1Br)C(=O)O; Phe(3-Me) = Cc1cccc(C[C@H](N)C(=O)O)c1; Val(3-OH) = CC(C)(O)[C@H](N)C(=O)O; 4Pal = N[C@@H](Cc1ccncc1)C(=O)O; 2Thi = N[C@@H](Cc1cccs1)C(=O)O; Cha = N[C@@H](CC1CCCCC1)C(=O)O; Cit = NC(=O)NCCC[C@H](N)C(=O)O; Ile(3ξ) = CCC(C)[C@H](N)C(=O)O; Thr(3ξ) = CC(O)[C@H](N)C(=O)O; Pip = O=C(O)[C@@H]1CCCCN1; Carboxymethyl = O=C(O)C*; NMeA = CN[C@@H](C)C(=O)O; Orn = NCCC[C@H](N)C(=O)O; Dab = NCC[C@H](N)C(=O)O; Dap = NC[C@H](N)C(=O)O

Target: T1, PE-labeled human PD-L1-Ig binding to Jurkat cell line over-expressing human PD-1 (Jurkat-PD-1) (Homo sapiens, UniProt Q15116)
T1 construct: expressed in transfected cells; host or cells: Jurkat
Assay: Jurkat-PD-1 Cell Binding High-Content Screening Assay (CBA): Method 1
Conditions: Jurkat-hPD-1 cells, PE-labeled PD-L1-Ig 20 nM final; read-out: Jurkat HPDL1 PD1 IC50 (uM) (Method 1)

T1 sequence (Q15116 25-288): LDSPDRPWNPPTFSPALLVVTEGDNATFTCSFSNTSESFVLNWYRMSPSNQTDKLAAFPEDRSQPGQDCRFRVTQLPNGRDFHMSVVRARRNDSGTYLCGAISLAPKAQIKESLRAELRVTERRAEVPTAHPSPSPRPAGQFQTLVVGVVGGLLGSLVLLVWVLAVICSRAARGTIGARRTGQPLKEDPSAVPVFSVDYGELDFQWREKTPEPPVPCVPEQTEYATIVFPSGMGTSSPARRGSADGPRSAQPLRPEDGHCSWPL

Compound | IC50
CC[C@H](C)[C@@H]1NC(=O)[C@H](Cc2ccc(-c3ccccc3)cc2)NC(=O)[C@H](C(C)C)NC(=O)[C@H](Cc2c[nH]c3ccccc23)NC(=O)[C@H](CC(=O)O)NC(=O)[C@H](Cc2ccc(O)c([N+](=O)[O-])c2)NC(=O)[C@H](CN)NC(=O)CSC[C@@H](C(=O)N[C@@H](C)C(N)=O)NC(=O)[C@H]([C@@H](C)O)NC(=O)[C@H](C(C)C)NC(=O)[C@H](CC(C)C)NC(=O)[C@H](CCN)NC(=O)[C@@H](CC(C)C)NC(=O)[C@H](C)N(C)C1=O [Compound 1409] ({CH2CO}-[Dap][Tyr(3-NO2)]DWV[Bip]I[NMeA][dL][Dab]LVTCA-NH2; thioether N-14) | 0.04 µM
CCC(C)[C@@H]1NC(=O)[C@H](Cc2ccc(-c3ccccc3)cc2)NC(=O)[C@H](C(C)C)NC(=O)[C@H](Cc2cccc(C)c2)NC(=O)[C@H](CC(=O)O)NC(=O)[C@H](Cc2ccc(C(=O)O)cc2)NC(=O)[C@H](Cc2ccncc2)NC(=O)CSC[C@@H](C(N)=O)NC(=O)[C@H](CCCN)NC(=O)[C@H](C(C)C)NC(=O)[C@H](CC2CCCCC2)NC(=O)[C@H](CCN)NC(=O)[C@@H](CC(C)C)NC(=O)[C@H](C)N(C)C1=O (stereo partly drawn) [Compound 1899] ({CH2CO}-[4Pal][Phe(4-COOH)]D[Phe(3-Me)]V[Bip][Ile(3ξ)][NMeA][dL][Dab][Cha]V[Orn]C-NH2; thioether N-14) | 0.01 µM
CC(C)C[C@@H]1NC(=O)[C@H](Cc2c[nH]c3ccccc23)NC(=O)[C@H](CC(=O)O)NC(=O)[C@H](Cc2ccccc2Br)NC(=O)[C@H](Cc2ccccc2)NC(=O)CSC[C@@H](C(=O)N[C@@H](C)C(N)=O)NC(=O)[C@H](CO)NC(=O)[C@H](C(C)C)NC(=O)[C@H](CC(C)C)NC(=O)[C@H](CC(N)=O)NC(=O)[C@@H](C)NC(=O)[C@H](C)N(C)C(=O)[C@H](C(C)C)NC(=O)[C@H](Cc2ccc(-c3ccccc3)cc2)NC1=O [Compound 1823] ({CH2CO}-F[Phe(2-Br)]DWL[Bip]V[NMeA][dA]NLVSCA-NH2; thioether N-14) | 0.6 µM
CC(C)C[C@@H]1NC(=O)[C@H](CCCNC(=N)N)NC(=O)[C@@H](Cc2ccccc2)NC(=O)[C@H](C)N(C)C(=O)[C@H](CCCNC(=N)N)NC(=O)[C@H](Cc2ccc(-c3ccccc3)cc2)NC(=O)[C@H](C(C)C)NC(=O)[C@H](Cc2c[nH]c3ccccc23)NC(=O)[C@H](CC(=O)O)NC(=O)[C@H](Cc2ccc(O)cc2)NC(=O)[C@H](CCC(N)=O)NC(=O)CSC[C@@H](C(=O)N[C@@H](C)C(N)=O)NC(=O)[C@H](CO)NC(=O)[C@H](C(C)C)NC1=O [Compound 1043] ({CH2CO}-QYDWV[Bip]R[NMeA][dF]RLVSCA-NH2; thioether N-14) | 0.17 µM
Cc1cccc(C[C@@H]2NC(=O)[C@H](CC(=O)O)NC(=O)[C@H](Cc3ccc(OCC(=O)O)cc3)NC(=O)[C@H](C(C)O)NC(=O)CSC[C@@H](C(=O)N[C@@H](CCN)C(N)=O)NC(=O)[C@H](CO)NC(=O)[C@H](C(C)(C)O)NC(=O)[C@H](CC3CCCCC3)NC(=O)[C@H](CCN)NC(=O)[C@@H](CC(C)C)NC(=O)[C@H](C)N(C)C(=O)[C@H](Cc3ccc(C(=O)O)cc3)NC(=O)[C@H](Cc3ccc(-c4ccccc4)cc3)NC(=O)[C@H](Cc3ccc(C(=O)O)cc3)NC2=O)c1 (stereo partly drawn) [Compound 2152] ({CH2CO}-[Thr(3ξ)]Y(Carboxymethyl)D[Phe(3-Me)][Phe(4-COOH)][Bip][Phe(4-COOH)][NMeA][dL][Dab][Cha][Val(3-OH)]SC[Dab]-NH2; thioether N-14) | 0.01 µM
CC(C)C[C@@H]1NC(=O)[C@H](Cc2c[nH]c3ccccc23)NC(=O)[C@H](Cc2nn[nH]n2)NC(=O)[C@H](Cc2ccc(O)cc2)NC(=O)[C@H](Cc2ccccc2)NC(=O)CSC[C@@H](C(=O)N[C@@H](C)C(N)=O)NC(=O)[C@H](CO)NC(=O)[C@H](C(C)C)NC(=O)[C@H](CC(C)C)NC(=O)[C@H](CC(N)=O)NC(=O)[C@@H](C)NC(=O)[C@H](C)N(C)C(=O)[C@H](C(C)C)NC(=O)[C@H](Cc2ccc(-c3ccccc3)cc2)NC1=O [Compound 1540] ({CH2CO}-FY[Ala(1H-tetrazol-5-yl)]WL[Bip]V[NMeA][dA]NLVSCA-NH2; thioether N-14) | 0.03 µM
CC(C)C[C@H]1NC(=O)[C@@H]2CCCCN2C(=O)[C@H](Cc2c[nH]cn2)NC(=O)[C@H](Cc2ccc(-c3ccccc3)cc2)NC(=O)[C@H](C(C)C)NC(=O)[C@H](Cc2c[nH]c3ccccc23)NC(=O)[C@H](CC(=O)O)NC(=O)[C@H](Cc2ccc(C(=O)O)cc2)NC(=O)[C@H](Cc2ccncc2)NC(=O)CSC[C@@H](C(=O)N[C@H](C)C(N)=O)NC(=O)[C@H](CO)NC(=O)[C@H](C(C)C)NC(=O)[C@H](CC2CCCCC2)NC(=O)[C@H](CCN)NC1=O [Compound 2125] ({CH2CO}-[4Pal][Phe(4-COOH)]DWV[Bip]H[Pip][dL][Dab][Cha]VSC[dA]-NH2; thioether N-14) | 0.04 µM
Cc1cccc(C[C@@H]2NC(=O)[C@H](CC(=O)O)NC(=O)[C@H](Cc3ccc(OCC(=O)O)cc3)NC(=O)[C@H](C(C)O)NC(=O)CSC[C@@H](C(N)=O)NC(=O)[C@H](CO)NC(=O)[C@H](C(C)(C)O)NC(=O)[C@H](CC3CCCCC3)NC(=O)[C@H](CCN)NC(=O)[C@@H](CC(C)C)NC(=O)[C@H](C)N(C)C(=O)[C@H](Cc3ccc(OCC(=O)O)cc3)NC(=O)[C@H](Cc3ccc(-c4ccccc4)cc3)NC(=O)[C@H](Cc3ccc(C(=O)O)cc3)NC2=O)c1 (stereo partly drawn) [Compound 2264] ({CH2CO}-[Thr(3ξ)]Y(Carboxymethyl)D[Phe(3-Me)][Phe(4-COOH)][Bip]Y(Carboxymethyl)[NMeA][dL][Dab][Cha][Val(3-OH)]SC-NH2; thioether N-14) | 0.09 µM
CC(C)C[C@@H]1NC(=O)[C@H](CCCN)NC(=O)[C@@H](CC(C)C)NC(=O)[C@H](C)N(C)C(=O)[C@H](CCCN)NC(=O)[C@H](Cc2ccc(-c3ccccc3)cc2)NC(=O)[C@H](C(C)C)NC(=O)[C@H](Cc2c[nH]c3ccccc23)NC(=O)[C@H](CC(=O)O)NC(=O)[C@H](Cc2ccc(O)cc2)NC(=O)[C@H](CC(N)=O)NC(=O)CSC[C@@H](C(=O)N[C@@H](C)C(N)=O)NC(=O)[C@H]([C@@H](C)O)NC(=O)[C@H](C(C)C)NC1=O [Compound 1241] ({CH2CO}-NYDWV[Bip][Orn][NMeA][dL][Orn]LVTCA-NH2; thioether N-14) | 0.02 µM
CC(C)C[C@@H]1NC(=O)[C@H](CCN)NC(=O)[C@@H](CC(C)C)NC(=O)[C@H](C)N(C)C(=O)[C@H](CCCNC(=N)N)NC(=O)[C@H](Cc2ccc(-c3ccccc3)cc2)NC(=O)[C@H](C(C)C)NC(=O)[C@H](Cc2c[nH]c3ccccc23)NC(=O)[C@H](CC(=O)O)NC(=O)[C@H](Cc2ccc(O)cc2)NC(=O)[C@H](CN)NC(=O)CSC[C@@H](C(=O)N[C@@H](C)C(N)=O)NC(=O)[C@H]([C@@H](C)O)NC(=O)[C@H](C(C)C)NC1=O [Compound 1350] ({CH2CO}-[Dap]YDWV[Bip]R[NMeA][dL][Dab]LVTCA-NH2; thioether N-14) | 0.03 µM
Cc1cccc(C[C@@H]2NC(=O)[C@H](CC(=O)O)NC(=O)[C@H](Cc3ccc(OCC(=O)O)cc3)NC(=O)[C@H](Cc3cccs3)NC(=O)CSC[C@@H](C(=O)N[C@@H](CN)C(N)=O)NC(=O)[C@H](C(C)O)NC(=O)[C@H](C(C)(C)O)NC(=O)[C@H](CC3CCCCC3)NC(=O)[C@H](CCN)NC(=O)[C@@H](CC(C)C)NC(=O)[C@H](C)N(C)C(=O)[C@H](CCCNC(N)=O)NC(=O)[C@H](Cc3ccc(-c4ccccc4)cc3)NC(=O)[C@H](Cc3ccc(OCC(=O)O)cc3)NC2=O)c1 (stereo partly drawn) [Compound 2169] ({CH2CO}-[2Thi]Y(Carboxymethyl)D[Phe(3-Me)]Y(Carboxymethyl)[Bip][Cit][NMeA][dL][Dab][Cha][Val(3-OH)][Thr(3ξ)]C[Dap]-NH2; thioether N-14) | 0.01 µM
